Measurements taken from ChEMBL document CHEMBL5131405, “Inhibition of ALK2 with bicyclic pyridyllactams” (Bioorg Med Chem Lett, 2022).

Legend:
[1] = target: Activin receptor type-1-like (Homo sapiens, UniProt P37023); assay: Inhibition of ALK1 (unknown origin); assay type: toxicity
Activin receptor type-1 [2] = target: T1, Activin receptor type-1 (Homo sapiens, UniProt Q04771); assay: Inhibition of ALK2 (unknown origin)
T1 sequence (Q04771 whole entry): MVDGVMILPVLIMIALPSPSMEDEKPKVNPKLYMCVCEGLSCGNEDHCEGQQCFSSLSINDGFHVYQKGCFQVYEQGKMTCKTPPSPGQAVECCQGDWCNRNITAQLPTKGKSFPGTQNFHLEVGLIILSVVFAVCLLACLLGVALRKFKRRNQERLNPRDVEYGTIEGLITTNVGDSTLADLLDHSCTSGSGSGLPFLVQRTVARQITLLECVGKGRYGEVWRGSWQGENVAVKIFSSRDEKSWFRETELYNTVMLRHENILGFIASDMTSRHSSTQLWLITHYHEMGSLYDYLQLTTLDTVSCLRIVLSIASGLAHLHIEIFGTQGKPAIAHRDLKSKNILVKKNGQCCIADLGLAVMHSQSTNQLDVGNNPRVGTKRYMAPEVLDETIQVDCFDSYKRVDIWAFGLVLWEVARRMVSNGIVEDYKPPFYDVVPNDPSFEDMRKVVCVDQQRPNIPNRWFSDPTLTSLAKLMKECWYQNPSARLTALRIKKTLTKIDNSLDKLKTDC

[3] = target: T2, Bone morphogenetic protein receptor type-1A (Homo sapiens, UniProt P36894); assay: Inhibition of ALK3 (unknown origin)
Activin receptor type-1 [4] = target: T1, Activin receptor type-1; assay: Inhibition of ALK2 in human HeLa cells assessed as inhibition of SMAD1 phosphorylation; assay type: cell-based
Activin receptor type-1 [5] = target: T1, Activin receptor type-1; assay: Inhibition of human recombinant ALK2 (172 to 499 residues) expressed in baculovirus-infected insect cells by ADP-Glo kinase assay
[6] = target: T2, Bone morphogenetic protein receptor type-1A; assay: Inhibition of human recombinant ALK3 (198 to 525 residues) expressed in baculovirus-infected insect cells by ADP-Glo kinase assay

T2 sequence (P36894 whole entry): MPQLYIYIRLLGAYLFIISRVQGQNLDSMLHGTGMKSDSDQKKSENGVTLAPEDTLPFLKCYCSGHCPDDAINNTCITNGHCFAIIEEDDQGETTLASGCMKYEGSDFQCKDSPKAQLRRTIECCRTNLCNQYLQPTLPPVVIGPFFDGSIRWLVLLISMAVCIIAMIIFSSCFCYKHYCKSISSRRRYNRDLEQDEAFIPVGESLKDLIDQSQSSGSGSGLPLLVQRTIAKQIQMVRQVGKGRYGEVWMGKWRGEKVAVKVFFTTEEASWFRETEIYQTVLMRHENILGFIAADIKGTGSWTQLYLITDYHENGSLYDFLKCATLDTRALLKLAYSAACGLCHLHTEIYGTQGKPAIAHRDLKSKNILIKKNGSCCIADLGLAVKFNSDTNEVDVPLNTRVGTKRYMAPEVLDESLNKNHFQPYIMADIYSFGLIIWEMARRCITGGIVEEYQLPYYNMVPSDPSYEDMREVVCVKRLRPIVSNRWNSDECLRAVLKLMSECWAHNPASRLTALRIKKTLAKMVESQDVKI
Sequence of Activin receptor type-1-like (P37023 whole entry): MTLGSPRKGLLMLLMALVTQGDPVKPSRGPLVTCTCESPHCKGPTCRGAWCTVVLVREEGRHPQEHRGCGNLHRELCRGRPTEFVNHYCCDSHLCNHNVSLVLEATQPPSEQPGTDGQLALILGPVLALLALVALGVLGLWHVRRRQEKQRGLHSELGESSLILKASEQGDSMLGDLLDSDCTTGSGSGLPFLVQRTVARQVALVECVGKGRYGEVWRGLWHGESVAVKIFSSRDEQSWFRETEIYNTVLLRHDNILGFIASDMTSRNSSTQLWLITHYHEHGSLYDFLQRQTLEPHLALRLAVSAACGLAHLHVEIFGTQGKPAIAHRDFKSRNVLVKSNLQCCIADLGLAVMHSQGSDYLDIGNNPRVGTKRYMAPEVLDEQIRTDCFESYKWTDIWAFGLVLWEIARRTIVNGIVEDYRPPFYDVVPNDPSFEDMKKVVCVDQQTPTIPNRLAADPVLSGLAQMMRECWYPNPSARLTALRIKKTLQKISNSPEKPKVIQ

IC50 (Activin receptor type-1 [2]) | IC50 [3] | IC50 (Activin receptor type-1 [4]) | IC50 (Activin receptor type-1 [5]) | IC50 [6] | Compound | IC50 [1]
0.0053 µM | 0.4 µM | 0.415 µM |  |  | Nc1ncc(-c2cnn(C3CCNCC3)c2)c2c1C(=O)N(C1C3CC4CC(C3)CC1C4)CC2 (stereo unspecified) | 0.027 µM
 |  |  | 0.0036 µM | 0.56 µM | C[C@@H]1CCCN1Cc1ccc(-c2cnc(N)c(C(=O)N[C@H]3CC[C@](C)(O)CC3)c2)cc1F | 
